Test results: patent publication US20250295646A1, “METHODS OF USE OF T-TYPE CALCIUM CHANNEL MODULATORS” (Praxis Precision Medicines, Inc., priority 2022, published 2025)

Test system: adult patients with essential tremor
Experiment: Example 16: accelerometer-based (Kinesia ONE) TETRAS upper limb score
Type: in vivo, human
Conditions: Part B Randomized Withdrawal; for Accelerometer-Based Upper Limb Score, Change from Baseline, Mean (SD) / Accelerometer-Based Upper Limb Score, Change from Baseline, Median / Accelerometer-Based Upper Limb Score, observed, Mean (SD) / Accelerometer-Based Upper Limb Score, observed, Median / Percentage Change from Baseline in Tremor Amplitude, Mean (SD) / Percentage Change from Baseline in Tremor Amplitude, Median / Accelerometer-Based Upper Limb Score, Change from Randomization, LS Mean (SE) / Accelerometer-Based Upper Limb Score, Change from Randomization, Mean (SD) / Accelerometer-Based Upper Limb Score, Change from Randomization, Median / LS Mean Percentage Change in Tremor Amplitude (from Randomization) / Percentage Change from Randomization in Tremor Amplitude, Mean (SD) / Percentage Change from Randomization in Tremor Amplitude, Median: Formula (I) group (N = 6)
From the text: Accelerometer (Kinesia ONE) TETRAS assessments were generally consistent with those conducted at the clinic. Accelerometer upper limb score values are summarized for Part A, the open-label titration phase of Part B, and the randomized withdrawal phase of Part B in Table 37, Table 38, and Table 39, respectively

[1] = Day 42 Post - dose (Randomization Baseline)

CC(C)(C)NC(=O)CN1CCC(CNC(=O)c2cc(F)cc(Cl)c2)CC1 [compound of formula (I), N-((1-(2-(tert-butylamino)-2-oxoethyl)piperidin-4-yl)methyl)-3-chloro-5-fluorobenzamide]
Accelerometer-Based Upper Limb Score, Change from Baseline, Mean (SD) (Day 1, Post - dose): −0.08 (1.710)
Accelerometer-Based Upper Limb Score, Change from Baseline, Median (Day 1, Post - dose): −0.78
Accelerometer-Based Upper Limb Score, observed, Mean (SD) (Day 1, Post - dose): 9.98 (2.321)
Accelerometer-Based Upper Limb Score, observed, Median (Day 1, Post - dose): 10.78
Percentage Change from Baseline in Tremor Amplitude, Mean (SD) (Day 1, Post - dose): −2.18 (27.539) %
Percentage Change from Baseline in Tremor Amplitude, Median (Day 1, Post - dose): −13.59%
Accelerometer-Based Upper Limb Score, Change from Baseline, Mean (SD) (Day 7): −0.79 (1.542)
Accelerometer-Based Upper Limb Score, Change from Baseline, Median (Day 7): −1.20
Accelerometer-Based Upper Limb Score, observed, Mean (SD) (Day 7): 9.55 (2.774)
Accelerometer-Based Upper Limb Score, observed, Median (Day 7): 10.15
Percentage Change from Baseline in Tremor Amplitude, Mean (SD) (Day 7): −12.59 (25.197) %
Percentage Change from Baseline in Tremor Amplitude, Median (Day 7): −19.95%
Accelerometer-Based Upper Limb Score, Change from Baseline, Mean (SD) (Day 21): −0.56 (1.273)
Accelerometer-Based Upper Limb Score, Change from Baseline, Median (Day 21): −0.55
Accelerometer-Based Upper Limb Score, observed, Mean (SD) (Day 21): 9.50 (2.760)
Accelerometer-Based Upper Limb Score, observed, Median (Day 21): 9.88
Percentage Change from Baseline in Tremor Amplitude, Mean (SD) (Day 21): −8.75 (21.102) %
Percentage Change from Baseline in Tremor Amplitude, Median (Day 21): −9.68%
Accelerometer-Based Upper Limb Score, Change from Baseline, Mean (SD) (Day 42, Post - dose): −0.68 (1.718)
Accelerometer-Based Upper Limb Score, Change from Baseline, Median (Day 42, Post - dose): −0.23
Percentage Change from Baseline in Tremor Amplitude, Mean (SD) (Day 42, Post - dose): −9.46 (26.746) %
Percentage Change from Baseline in Tremor Amplitude, Median (Day 42, Post - dose): −3.87%
Accelerometer-Based Upper Limb Score, Change from Baseline, Mean (SD) (Day 42, Pre - dose): −0.73 (1.948)
Accelerometer-Based Upper Limb Score, Change from Baseline, Median (Day 42, Pre - dose): −0.98
Accelerometer-Based Upper Limb Score, observed, Mean (SD) (Day 42, Pre - dose): 9.33 (2.645)
Accelerometer-Based Upper Limb Score, observed, Median (Day 42, Pre - dose): 10.40
Percentage Change from Baseline in Tremor Amplitude, Mean (SD) (Day 42, Pre - dose): −10.75 (29.656) %
Percentage Change from Baseline in Tremor Amplitude, Median (Day 42, Pre - dose): −17.06%
Accelerometer-Based Upper Limb Score, observed, Mean (SD) [1]: 9.38 (2.242)
Accelerometer-Based Upper Limb Score, observed, Median [1]: 9.50
Accelerometer-Based Upper Limb Score, Change from Baseline, Mean (SD) (Day 56): −0.55 (3.145)
Accelerometer-Based Upper Limb Score, Change from Baseline, Median (Day 56): 0.62
Accelerometer-Based Upper Limb Score, Change from Randomization, LS Mean (SE) (Day 56): 0.120 (0.9528)
Accelerometer-Based Upper Limb Score, Change from Randomization, Mean (SD) (Day 56): 0.13 (1.495)
Accelerometer-Based Upper Limb Score, Change from Randomization, Median (Day 56): 0.70
Accelerometer-Based Upper Limb Score, observed, Mean (SD) (Day 56): 9.51 (2.810)
Accelerometer-Based Upper Limb Score, observed, Median (Day 56): 9.75
LS Mean Percentage Change in Tremor Amplitude (from Randomization) (Day 56): 2.3%
Percentage Change from Baseline in Tremor Amplitude, Mean (SD) (Day 56): −4.53 (43.487) %
Percentage Change from Baseline in Tremor Amplitude, Median (Day 56): 9.78%
Percentage Change from Randomization in Tremor Amplitude, Mean (SD) (Day 56): 2.74 (24.404) %
Percentage Change from Randomization in Tremor Amplitude, Median (Day 56): 12.37%
Accelerometer-Based Upper Limb Score, Change from Baseline, Mean (SD) (Day 70): 1.30 (2.932)
Accelerometer-Based Upper Limb Score, Change from Baseline, Median (Day 70): 0.35
Accelerometer-Based Upper Limb Score, Change from Randomization, LS Mean (SE) (Day 70): 2.482 (1.0202)
Accelerometer-Based Upper Limb Score, Change from Randomization, Mean (SD) (Day 70): 2.34 (2.050)
Accelerometer-Based Upper Limb Score, Change from Randomization, Median (Day 70): 1.85
Accelerometer-Based Upper Limb Score, observed, Mean (SD) (Day 70): 11.33 (2.653)
Accelerometer-Based Upper Limb Score, observed, Median (Day 70): 12.40
LS Mean Percentage Change in Tremor Amplitude (from Randomization) (Day 70): 37.9%
Percentage Change from Baseline in Tremor Amplitude, Mean (SD) (Day 70): 14.62 (35.044) %
Percentage Change from Baseline in Tremor Amplitude, Median (Day 70): 6.50%
Percentage Change from Randomization in Tremor Amplitude, Mean (SD) (Day 70): 32.71 (20.891) %
Percentage Change from Randomization in Tremor Amplitude, Median (Day 70): 29.88%
LS Mean (SE) for Difference (Formula (I) - Placebo), change from Randomization in accelerometer-based upper limb score (Day 56): −2.227 (1.4135)
LS Mean Percentage Change Difference (Formula (I) - Placebo) (Day 56): −34.0%
LS Mean (SE) for Difference (Formula (I) - Placebo), change from Randomization in accelerometer-based upper limb score (Day 70): −0.356 (1.4667)
LS Mean Percentage Change Difference (Formula (I) - Placebo) (Day 70): −4.1%
